From patent US20100061928A1, “LABELLED ANALOGUES OF HALOBENZAMIDES AS RADIOPHARMACEUTICALS” (Institut National De La Sante et De La Recherche Medicale …, priority 2006, published 2010)
Where a name gives a salt, the structure may show the parent alone. Blank lines part the entries; values can stand above or below the compound they belong to.

What was measured:
[1] = Elimination of the molecules: cumulative urinary and faecal excretion 0-72 hours; assay type: in vivo, mouse; conditions: for Faecal elimination 0-72 hours (Faeces) / Urinary and faecal elimination 0-72 hours (Total) / Urinary elimination 0-72 hours (Urine): cumulative excretion 0-72 hours; for Faecal elimination 0-72 hours (Faeces) / Urinary elimination 0-72 hours (Urine): mice in metabolic cages; for Urinary and faecal elimination 0-72 hours (Total): urine + faeces
tumour = experiment: Dosimetry with regard to the tumour (MIRD programme, extrapolated to ^131I); conditions: for Effective period: extrapolated to 131I labelling; for Biological period: from biodistribution data
[2] = tested on: grafted B16 F0 murine melanoma tumour; experiment: Biodistribution of the ^125I-labelled molecules in the melanoma-bearing mouse (autoradiography of whole-body sections); conditions: for Concentration of radioactivity, B 16 (tumour), Mean / Concentration of radioactivity, Ic (intestinal contents), Mean / Concentration of radioactivity, Sc (stomach contents), Mean / Concentration of radioactivity, blood (measured in the heart cavity), Mean / Concentration of radioactivity, brain, Mean / Concentration of radioactivity, kidney, Mean / Concentration of radioactivity, liver, Mean / Concentration of radioactivity, lungs, Mean / Concentration of radioactivity, muscle (skeletal muscle), Mean / Concentration of radioactivity, pancreas, Mean / Concentration of radioactivity, spleen, Mean / Concentration of radioactivity, uvea (pigmented tissues of the eye), Mean: ^125I-labelled compound; for Biodistribution, Mean, B 16 / Biodistribution, radioactivity concentration in B 16, Mean: B 16 tumour
[3] = 1 H after i.v., 125I-labelled, dose = 1.09 MBq
[4] = 3 H after i.v., 125I-labelled, dose = 1.09 MBq
[5] = 24 H after i.v., 125I-labelled, dose = 1.09 MBq
[6] = 72 H after i.v., 125I-labelled, dose = 1.09 MBq

- Faecal elimination 0-72 hours (Faeces) [1]: 4.8%
- Urinary and faecal elimination 0-72 hours (Total) [1]: 87.9%
- Urinary elimination 0-72 hours (Urine) [1]: 83.1%
- elimination route (in words) ([1]; urinary versus faecal, 0-72 hours): predominantly in the urine
- Effective period (tumour): 17.8 h
- Biological period (tumour): 19.6 hours
SMILES: CCN(CC)CCNC(=O)c1ccc(I)cc1 [BZA, N-(2-diethylaminoethyl)-4-iodobenzamide, reference compound]

- Faecal elimination 0-72 hours (Faeces) [1]: 26.7%
- Urinary and faecal elimination 0-72 hours (Total) [1]: 70.6%
- Urinary elimination 0-72 hours (Urine) [1]: 43.7%
- Effective period (tumour): 21.4 h
- Biological period (tumour): 24.0 hours
- Concentration of radioactivity, B 16 (tumour), Mean ([2]; 1 H after i.v. administration): 12.99 % ID/g
- Concentration of radioactivity, Ic (intestinal contents), Mean ([2]; 1 H after i.v. administration): 7.82 % ID/g
- Concentration of radioactivity, Sc (stomach contents), Mean ([2]; 1 H after i.v. administration): 27.82 % ID/g
- Concentration of radioactivity, blood (measured in the heart cavity), Mean ([2]; 1 H after i.v. administration): 2.97 % ID/g
- Concentration of radioactivity, brain, Mean ([2]; 1 H after i.v. administration): 4.37 % ID/g
- Concentration of radioactivity, kidney, Mean ([2]; 1 H after i.v. administration): 13.30 % ID/g
- Concentration of radioactivity, liver, Mean ([2]; 1 H after i.v. administration): 9.46 % ID/g
- Concentration of radioactivity, lungs, Mean ([2]; 1 H after i.v. administration): 11.82 % ID/g
- Concentration of radioactivity, muscle (skeletal muscle), Mean ([2]; 1 H after i.v. administration): 1.92 % ID/g
- Concentration of radioactivity, pancreas, Mean ([2]; 1 H after i.v. administration): 10.18 % ID/g
- Concentration of radioactivity, spleen, Mean ([2]; 1 H after i.v. administration): 9.70 % ID/g
- Concentration of radioactivity, uvea (pigmented tissues of the eye), Mean ([2]; 1 H after i.v. administration): 13.21 % ID/g
- Concentration of radioactivity, B 16 (tumour), Mean ([2]; 3 H after i.v. administration): 11.38 % ID/g
- Concentration of radioactivity, Ic (intestinal contents), Mean ([2]; 3 H after i.v. administration): 25.85 % ID/g
- Concentration of radioactivity, Sc (stomach contents), Mean ([2]; 3 H after i.v. administration): 24.69 % ID/g
- Concentration of radioactivity, blood (measured in the heart cavity), Mean ([2]; 3 H after i.v. administration): 1.77 % ID/g
- Concentration of radioactivity, brain, Mean ([2]; 3 H after i.v. administration): 0.78 % ID/g
- Concentration of radioactivity, kidney, Mean ([2]; 3 H after i.v. administration): 5.65 % ID/g
- Concentration of radioactivity, liver, Mean ([2]; 3 H after i.v. administration): 4.75 % ID/g
- Concentration of radioactivity, lungs, Mean ([2]; 3 H after i.v. administration): 4.43 % ID/g
- Concentration of radioactivity, muscle (skeletal muscle), Mean ([2]; 3 H after i.v. administration): 0.83 % ID/g
- Concentration of radioactivity, pancreas, Mean ([2]; 3 H after i.v. administration): 8.19 % ID/g
- Concentration of radioactivity, spleen, Mean ([2]; 3 H after i.v. administration): 2.59 % ID/g
- Concentration of radioactivity, uvea (pigmented tissues of the eye), Mean ([2]; 3 H after i.v. administration): 13.90 % ID/g
- Concentration of radioactivity, B 16 (tumour), Mean ([2]; 6 H after i.v. administration): 8.95 % ID/g
- Concentration of radioactivity, Ic (intestinal contents), Mean ([2]; 6 H after i.v. administration): 18.72 % ID/g
- Concentration of radioactivity, Sc (stomach contents), Mean ([2]; 6 H after i.v. administration): 10.79 % ID/g
- Concentration of radioactivity, blood (measured in the heart cavity), Mean ([2]; 6 H after i.v. administration): 1.74 % ID/g
- Concentration of radioactivity, brain, Mean ([2]; 6 H after i.v. administration): 0.25 % ID/g
- Concentration of radioactivity, kidney, Mean ([2]; 6 H after i.v. administration): 3.07 % ID/g
- Concentration of radioactivity, liver, Mean ([2]; 6 H after i.v. administration): 2.73 % ID/g
- Concentration of radioactivity, lungs, Mean ([2]; 6 H after i.v. administration): 2.12 % ID/g
- Concentration of radioactivity, muscle (skeletal muscle), Mean ([2]; 6 H after i.v. administration): 0.38 % ID/g
- Concentration of radioactivity, spleen, Mean ([2]; 6 H after i.v. administration): 8.05 % ID/g
- Concentration of radioactivity, uvea (pigmented tissues of the eye), Mean ([2]; 6 H after i.v. administration): 12.76 % ID/g
- Concentration of radioactivity, B 16 (tumour), Mean ([2]; 24 H after i.v. administration): 6.97 % ID/g
- Concentration of radioactivity, Ic (intestinal contents), Mean ([2]; 24 H after i.v. administration): 3.03 % ID/g
- Concentration of radioactivity, Sc (stomach contents), Mean ([2]; 24 H after i.v. administration): 3.10 % ID/g
- Concentration of radioactivity, uvea (pigmented tissues of the eye), Mean ([2]; 24 H after i.v. administration): 12.28 % ID/g
- Concentration of radioactivity, B 16 (tumour), Mean ([2]; 72 H after i.v. administration): 1.52 % ID/g
- Concentration of radioactivity, uvea (pigmented tissues of the eye), Mean ([2]; 72 H after i.v. administration): 7.84 % ID/g
SMILES: CCN(CC)CCNC(=O)c1ccc2cc(I)ccc2c1 [compound 3, N-(2-diethylaminoethyl)-6-iodo-2-naphthamide hydrochloride]

- Faecal elimination 0-72 hours (Faeces) [1]: 23.2%
- Urinary and faecal elimination 0-72 hours (Total) [1]: 31.7%
- Urinary elimination 0-72 hours (Urine) [1]: 8.5%
- Biodistribution, Mean, B 16 ([2]; 1 H): 4.78
- Biodistribution, Mean, B 16 ([2]; 3 H): 3.98
- Biodistribution, Mean, B 16 ([2]; 6 H): 4.57
- Biodistribution, Mean, B 16 ([2]; 24 H): 2.77
- Biodistribution, Mean, B 16 ([2]; 72 H): 1.67
- Biodistribution, Mean, GB ([2]; 1 H): 43.71
- Biodistribution, Mean, GB ([2]; 6 H): 12.79
- Biodistribution, Mean, Ic ([2]; 1 H): 23.92
- Biodistribution, Mean, Ic ([2]; 3 H): 30.20
- Biodistribution, Mean, Ic ([2]; 6 H): 28.54
- Biodistribution, Mean, Ic ([2]; 24 H): 1.83
- Biodistribution, Mean, Ic ([2]; 72 H): 0.75
- Biodistribution, Mean, Sc ([2]; 1 H): 10.16
- Biodistribution, Mean, Sc ([2]; 3 H): 9.56
- Biodistribution, Mean, Sc ([2]; 6 H): 6.06
- Biodistribution, Mean, Sc ([2]; 24 H): 0.73
- Biodistribution, Mean, blood ([2]; 1 H): 0.75
- Biodistribution, Mean, blood ([2]; 3 H): 0.54
- Biodistribution, Mean, blood ([2]; 6 H): 0.42
- Biodistribution, Mean, brain ([2]; 1 H): 0.28
- Biodistribution, Mean, brain ([2]; 3 H): 0.27
- Biodistribution, Mean, brain ([2]; 6 H): 0.11
- Biodistribution, Mean, kidney ([2]; 1 H): 3.07
- Biodistribution, Mean, kidney ([2]; 3 H): 1.27
- Biodistribution, Mean, kidney ([2]; 6 H): 0.77
- Biodistribution, Mean, liver ([2]; 1 H): 5.38
- Biodistribution, Mean, liver ([2]; 3 H): 3.62
- Biodistribution, Mean, liver ([2]; 6 H): 2.16
- Biodistribution, Mean, liver ([2]; 24 H): 0.48
- Biodistribution, Mean, liver ([2]; 72 H): 0.42
- Biodistribution, Mean, lungs ([2]; 1 H): 1.70
- Biodistribution, Mean, lungs ([2]; 3 H): 0.88
- Biodistribution, Mean, lungs ([2]; 6 H): 0.59
- Biodistribution, Mean, muscle ([2]; muscle, 1 H): 0.30
- Biodistribution, Mean, pancreas ([2]; 1 H): 1.38
- Biodistribution, Mean, pancreas ([2]; 3 H): 0.70
- Biodistribution, Mean, spleen ([2]; 1 H): 3.11
- Biodistribution, Mean, spleen ([2]; 3 H): 1.29
- Biodistribution, Mean, spleen ([2]; 6 H): 0.87
- Biodistribution, Mean, thyroid ([2]; 1 H): 21.00
- Biodistribution, Mean, thyroid ([2]; 24 H): 40.73
- Biodistribution, Mean, thyroid ([2]; 72 H): 38.07
- Biodistribution, Mean, uvea ([2]; 1 H): 3.83
- Biodistribution, Mean, uvea ([2]; 3 H): 4.69
- Biodistribution, Mean, uvea ([2]; 6 H): 3.51
- Biodistribution, Mean, uvea ([2]; 24 H): 3.45
- Biodistribution, Mean, uvea ([2]; 72 H): 1.96
SMILES: CCN(CC)CCNC(=O)c1cccc2cc3cc(I)ccc3nc12 [compound 111, N-(2-diethylaminoethyl)-7-iodoacridine-4-carboxamide dihydrochloride]

- Faecal elimination 0-72 hours (Faeces) [1]: 34.8%
- Urinary and faecal elimination 0-72 hours (Total) [1]: 80.5%
- Urinary elimination 0-72 hours (Urine) [1]: 45.7%
- Biodistribution, radioactivity concentration in B 16, Mean [2, 3]: 14.69 % ID/g
- Biodistribution, radioactivity concentration in B 16, Mean [2, 4]: 44.92 % ID/g
- Biodistribution, radioactivity concentration in B 16, Mean [2, 5]: 37.46 % ID/g
- Biodistribution, radioactivity concentration in B 16, Mean [2, 6]: 24.02 % ID/g
- Biodistribution, radioactivity concentration in Ic, Mean [2, 3]: 27.28 % ID/g
- Biodistribution, radioactivity concentration in Ic, Mean [2, 4]: 29.12 % ID/g
- Biodistribution, radioactivity concentration in Sc, Mean [2, 3]: 24.11 % ID/g
- Biodistribution, radioactivity concentration in Sc, Mean [2, 4]: 34.86 % ID/g
- tumour concentration, times higher than with BZA ([2]; at 72 hours (FIG. 1B)): 31 times
- Biodistribution, radioactivity concentration in blood, Mean [2, 3]: 1.85 % ID/g
- Biodistribution, radioactivity concentration in blood, Mean [2, 4]: 1.61 % ID/g
- Biodistribution, radioactivity concentration in brain, Mean [2, 3]: 0.75 % ID/g
- Biodistribution, radioactivity concentration in brain, Mean [2, 4]: 0.46 % ID/g
- tumour concentration, % of the injected dose per gram of tumour ([2]; from the first hour): 14.7 % ID/g
- Biodistribution, radioactivity concentration in kidney, Mean [2, 3]: 24.42 % ID/g
- Biodistribution, radioactivity concentration in kidney, Mean [2, 4]: 17.73 % ID/g
- Biodistribution, radioactivity concentration in liver, Mean [2, 3]: 12.84 % ID/g
- Biodistribution, radioactivity concentration in liver, Mean [2, 4]: 7.84 % ID/g
- Biodistribution, radioactivity concentration in lungs, Mean [2, 3]: 5.81 % ID/g
- Biodistribution, radioactivity concentration in lungs, Mean [2, 4]: 4.91 % ID/g
- Biodistribution, radioactivity concentration in muscle, Mean ([2]; muscle, 3 H after i.v., 125I-labelled, dose = 1.09 MBq): 0.79 % ID/g
- Biodistribution, radioactivity concentration in pancreas, Mean [2, 3]: 23.88 % ID/g
- Biodistribution, radioactivity concentration in pancreas, Mean [2, 4]: 13.06 % ID/g
- Biodistribution, radioactivity concentration in spleen, Mean [2, 3]: 18.70 % ID/g
- Biodistribution, radioactivity concentration in spleen, Mean [2, 4]: 6.08 % ID/g
- Biodistribution, radioactivity concentration in thyroid, Mean [2, 4]: 60.78 % ID/g
- Biodistribution, radioactivity concentration in thyroid, Mean [2, 5]: 44.74 % ID/g
- Biodistribution, radioactivity concentration in uvea, Mean [2, 3]: 28.75 % ID/g
- Biodistribution, radioactivity concentration in uvea, Mean [2, 4]: 41.75 % ID/g
- Biodistribution, radioactivity concentration in uvea, Mean [2, 5]: 32.62 % ID/g
- Biodistribution, radioactivity concentration in uvea, Mean [2, 6]: 23.28 % ID/g
SMILES: CCCN(CCC)CCCCNC(=O)c1cnc2cc(I)ccc2n1 [compound 144, N-(4-dipropylaminobutyl)-6-iodoquinoxaline-2-carboxamide dihydrochloride]
